This is an account of results in the supplement of paper PMC9103864.

A value given as a limit tells only on which side of the number the result lay.

For assay [1], the system named is BMSC (primary human bone marrow mesenchymal stromal cells). The assay can be described thus: absolute EC50 for viability; higher = less sensitive.
For assay [2] the test system is unchanged. The assay can be described thus: drug sensitivity score (DSS); higher = more sensitive.

Consider `CC1(C)C(C(=O)Nc2ccc(S(=O)(=O)c3ccc(NC(=O)C4C(C)(C)C4(C)C)cc3)cc2)C1(C)C` [BRD7116], for which the “absolute EC50 for viability” value in assay [1] was more than 10 µM. The same molecule returned a drug sensitivity score in assay [2] of 0.
Take `CN(c1ncccc1CNc1nc(Nc2ccc3c(c2)CC(=O)N3)ncc1C(F)(F)F)S(C)(=O)=O`: in assay [1], the “absolute EC50 for viability” value is more than 10 µM. For the same molecule, in assay [2], the drug sensitivity score was 3.2.
As for `O=S(=O)(c1cccc2c(O)nccc12)N1CCCNCC1` [Hydroxyfasudil], the “absolute EC50 for viability” value in assay [1] was more than 19 µM. This molecule also yielded a drug sensitivity score in assay [2] of 1.
On to `NC(=O)c1cccc(-c2cccc(OC(=O)NC3CCCCC3)c2)c1` [URB597], for which, in assay [1], the “absolute EC50 for viability” value is more than 1 µM. Moreover, in assay [2], the drug sensitivity score is 0.
With `Nc1nc(OCc2cc(Br)cs2)c2[nH]cnc2n1` [Lomeguatrib], in assay [1], the “absolute EC50 for viability” value was more than 10 µM. In addition, the drug sensitivity score in assay [2] was determined as 0.
On to `Cc1ccc(C(=O)Nc2ccc(CN3CCN(C)CC3)c(C(F)(F)F)c2)cc1C#Cc1cnc2cccnn12` [Ponatinib], for which the “absolute EC50 for viability” value in assay [1] is more than 1 µM. The molecule further returned a drug sensitivity score in assay [2] of 4.6.
The like results for `Cc1cc(Nc2ncc(Cl)c(Nc3ccccc3S(=O)(=O)C(C)C)n2)c(OC(C)C)cc1C1CCNCC1` [Ceritinib] were, in that order, more than 2.5 µM and 1.3.
The corresponding values for `CC(C)c1cc(C(=O)N2Cc3ccc(CN4CCN(C)CC4)cc3C2)c(O)cc1O` [Onalespib] are 0.0904 µM and 12.5.
With `CO[C@H](C(=O)[C@@H](O)[C@@H](C)O)[C@@H]1Cc2cc3cc(O[C@H]4C[C@@H](O[C@@H]5C[C@@H](O)[C@H](O)[C@@H](C)O5)[C@H](O)[C@@H](C)O4)c(C)c(O)c3c(O)c2C(=O)[C@H]1O[C@H]1C[C@@H](O[C@@H]2C[C@@H](O)[C@@H](O[C@@H]3C[C@](C)(O)[C@H](O)[C@@H](C)O3)[C@@H](C)O2)[C@H](O)[C@@H](C)O1` [Plicamycin], in assay [1], the “absolute EC50 for viability” value is more than 10 µM. This molecule also returned a drug sensitivity score in assay [2] of 2.1.
The like results for `CCN1CCN(Cc2ccc(Nc3ncc(F)c(-c4cc(F)c5nc(C)n(C(C)C)c5c4)n3)nc2)CC1` [Abemaciclib] were, in that order, more than 2.5 µM and 0.
The corresponding values for `NC(=S)N/N=C/c1ncccc1N` [Triapine] are more than 10 µM and 0.
Regarding `CNC(=O)c1ccc(C)c(-n2c(C)cc(OCc3ccc(F)cc3F)c(Br)c2=O)c1`, in assay [1], the “absolute EC50 for viability” value was more than 1 µM. Further, the drug sensitivity score in assay [2] stood at 0.
Turning to `COc1cc(Nc2ncc3c(n2)-c2ccc(Cl)cc2C(c2c(F)cccc2OC)=NC3)ccc1C(=O)O` [Alisertib], the “absolute EC50 for viability” value in assay [1] was more than 10 µM. This molecule also registered a drug sensitivity score in assay [2] of 0.
The corresponding values for `CCN(CC)C(=S)SSC(=S)N(CC)CC` [Disulfiram] are more than 50 µM and 0.
For the molecule `Cc1cccc(CC(=O)N2CCc3c2ccc(-c2cn(C)c4ncnc(N)c24)c3F)n1`, the “absolute EC50 for viability” value in assay [1] was more than 2.5 µM. The drug sensitivity score in assay [2] turned out to be 0.
The like results for `CN(C)C(=N)NC(=N)N` [Metformin] were, in that order, more than 100 µM and 0.
For `CCCCCCCCCCCCCCCCCCOP(=O)([O-])OC1CC[N+](C)(C)CC1` [Perifosine], in assay [1], the “absolute EC50 for viability” value is more than 2.5 µM. In assay [2], this molecule registered a drug sensitivity score of 0.
The like results for `COc1cccc2c1C(=O)c1c(O)c3c(c(O)c1C2=O)C[C@@](O)(/C(CO)=N/NC(=O)CCCCCN1C(=O)C=CC1=O)C[C@@H]3O[C@H]1C[C@H](N)[C@H](O)[C@H](C)O1` [Aldoxorubicin] were, in that order, 0.945 µM and 7.3.
The corresponding values for `Nc1ccn([C@@H]2O[C@H](CO)[C@@H](O)C2(F)F)c(=O)n1` [Gemcitabine] are more than 1 µM and 4.5.
As for `CC[C@@H]1C(=O)OC[C@@H]1Cc1cncn1C` [Pilocarpine], the “absolute EC50 for viability” value in assay [1] is more than 40 µM. Further, in assay [2], the drug sensitivity score is 0.
For `CN(C)C1CCN(C(=O)c2ccc(NC(=O)Nc3ccc(-c4nc(N5CCOCC5)nc(N5CCOCC5)n4)cc3)cc2)CC1` [Gedatolisib], the “absolute EC50 for viability” value in assay [1] was determined as 0.0437 µM. The molecule further showed a drug sensitivity score in assay [2] of 14.3.
As to `C=CC(=O)Nc1cc2c(Nc3ccc(F)c(Cl)c3)ncnc2cc1OCCCN1CCOCC1` [Canertinib], the “absolute EC50 for viability” value in assay [1] was more than 10 µM. The molecule further had a drug sensitivity score in assay [2] of 3.7.
As for `COc1cc2c(cc1OCCCN1CCCC1)N=C(N)C21CCC1` [A-366], the “absolute EC50 for viability” value in assay [1] was more than 25 µM. For the same molecule, the drug sensitivity score in assay [2] came out at 2.8.
Consider `COc1ncc(-c2ccc3nccc(-c4ccnnc4)c3c2)cc1NS(=O)(=O)c1ccc(F)cc1F` [Omipalisib], for which the “absolute EC50 for viability” value in assay [1] came out at 0.0979 µM. In assay [2], this molecule displayed a drug sensitivity score of 11.6.
Take `O=C(CCCCCCC(=O)Nc1ccccc1)NO` [Vorinostat]: the “absolute EC50 for viability” value in assay [1] is 2.94 µM. Also, the drug sensitivity score in assay [2] was 5.6.
On to `COc1cccc2c1c(O)c(C(=O)N(C)c1ccc(C(F)(F)F)cc1)c(=O)n2C` [Tasquinimod], for which, in assay [1], the “absolute EC50 for viability” value was more than 10 µM. In assay [2], this molecule showed a drug sensitivity score of 0.8.
With `COc1cc(NS(C)(=O)=O)ccc1Nc1c2ccccc2nc2ccccc12` [Amsacrine], in assay [1], the “absolute EC50 for viability” value was more than 10 µM. This molecule also returned a drug sensitivity score in assay [2] of 2.8.
As for `Cc1cc2c(C(=O)NC[C@H](C)c3ccccc3)c(O)c(O)cc2c(O)c1-c1c(C)cc2c(C(=O)NC[C@H](C)c3ccccc3)c(O)c(O)cc2c1O` [Sabutoclax], the “absolute EC50 for viability” value in assay [1] stood at 7.71 µM. The molecule further came in with a drug sensitivity score in assay [2] of 5.6.
For `CNc1ncc2cc(-c3cc(NC(=O)NCCC(C)(C)C)c(F)cc3C)c(C)nc2n1`, the “absolute EC50 for viability” value in assay [1] is more than 10 µM. The molecule also registered a drug sensitivity score in assay [2] of 6.2.
As to `COc1cc2nccc(Oc3ccc(NC(=O)Nc4cc(C)on4)c(Cl)c3)c2cc1OC` [Tivozanib], in assay [1], the “absolute EC50 for viability” value is more than 10 µM. Besides, in assay [2], the drug sensitivity score came out at 7.6.
The like results for `CC[C@H](CO)Nc1nc(NCc2ccccc2)c2ncn(C(C)C)c2n1` [Seliciclib] were, in that order, more than 10 µM and 0.
Consider `N[C@@H]1CCCN(c2c(/C=C3\SC(=O)NC3=O)cccc2-c2ccccc2)C1` [AZD1208], for which the “absolute EC50 for viability” value in assay [1] was more than 10 µM. In assay [2], this molecule showed a drug sensitivity score of 0.5.
For `O=C(Nc1cc(Oc2cc(F)c(NC(=O)C3(C(=O)Nc4ccc(F)cc4)CC3)cc2F)ccn1)C1CC1` [Altiratinib], the “absolute EC50 for viability” value in assay [1] is more than 10 µM. In assay [2], this molecule yielded a drug sensitivity score of 2.9.
For `CCCCC(=O)OCC(=O)[C@]1(O)Cc2c(O)c3c(c(O)c2[C@@H](O[C@H]2C[C@H](NC(=O)C(F)(F)F)[C@H](O)[C@H](C)O2)C1)C(=O)c1c(OC)cccc1C3=O` [Valrubicin], in assay [1], the “absolute EC50 for viability” value is 0.489 µM. Moreover, the drug sensitivity score in assay [2] was 10.8.
The like results for `Nc1cc(COc2c(Cl)cc(C[C@H](N)C(=O)O)cc2Cl)c2oc(-c3ccccc3)nc2c1` [JPH203] were, in that order, more than 5 µM and 0.
The corresponding values for `CN1CCN(CCOc2cc(OC3CCOCC3)c3c(Nc4c(Cl)ccc5c4OCO5)ncnc3c2)CC1` [Saracatinib] are more than 10 µM and 5.
The corresponding values for `CNCc1ccc(-c2[nH]c3cc(F)cc4c3c2CCNC4=O)cc1` [Rucaparib] are more than 10 µM and 2.3.
Take `COc1ccc2[nH]cc(/C=C3\C(=O)Nc4ccc(NC(=O)CCN5CCCCC5)cc43)c2c1`: the “absolute EC50 for viability” value in assay [1] turned out to be 7.38 µM. The drug sensitivity score in assay [2] came out at 9.6.
The corresponding values for `CC[C@@H]1C(=O)N(C)c2cnc(Nc3ccc(C(=O)N[C@H]4CC[C@H](N5CCN(CC6CC6)CC5)CC4)cc3OC)nc2N1C(C)C` [Volasertib] are more than 1 µM and 1.5.
The like results for `CC[C@]1(O)C[C@@H]2CN(CCc3c([nH]c4ccccc34)[C@@](C(=O)OC)(c3cc4c(cc3OC)N(C)[C@H]3[C@@](O)(C(=O)OC)[C@H](OC(C)=O)[C@]5(CC)C=CCN6CC[C@]43[C@@H]65)C2)C1` [Vinblastine] were, in that order, more than 1 µM and 1.9.
The like results for `CC[C@]12C=CCN3CC[C@@]4(c5cc([C@@]6(C(=O)OC)C[C@@H]7C[C@@H](C(C)(F)F)CN(Cc8c6[nH]c6ccccc86)C7)c(OC)cc5N(C)[C@H]4[C@@](O)(C(=O)OC)[C@@H]1OC(C)=O)[C@@H]32` [Vinflunine] were, in that order, more than 1 µM and 2.8.
In the case of `C=C1C[C@@H]2[C@H](CC[C@]3(C)C(=O)CC[C@@H]23)[C@@]2(C)C=CC(=O)C=C12` [Exemestane], the “absolute EC50 for viability” value in assay [1] is more than 10 µM. This molecule displayed a drug sensitivity score in assay [2] of 0.
The like results for `CN1CC[C@H](c2c(O)cc(O)c3c(=O)cc(-c4ccccc4Cl)oc23)[C@H](O)C1` [Alvocidib] were, in that order, 0.739 µM and 10.8.
The corresponding values for `CNC(=O)c1cc(Oc2ccc(NC(=O)Nc3ccc(Cl)c(C(F)(F)F)c3)cc2)ccn1` [Sorafenib] are more than 1 µM and 0.
As to `Cc1c(-c2c(-c3ccc(F)o3)sc3ncnc(O[C@H](Cc4ccccc4OCc4ccnn4CC(F)(F)F)C(=O)O)c23)ccc(OCCN2CCN(C)CC2)c1Cl`, in assay [1], the “absolute EC50 for viability” value is more than 1 µM. In assay [2], the drug sensitivity score was 0.
The like results for `Cc1ccc(=O)n(-c2ccccc2)c1` [Pirfenidone] were, in that order, more than 10 µM and 0.
The corresponding values for `CC(C)(C)c1cnc(CSc2cnc(NC(=O)C3CCNCC3)s2)o1` [SNS-032] are more than 10 µM and 12.8.
In the case of `C[C@]12C=CC(=O)C=C1CC[C@@H]1[C@@H]2[C@@H](O)C[C@@]2(C)[C@H]1CC[C@]2(O)C(=O)CO` [Prednisolone], the “absolute EC50 for viability” value in assay [1] was more than 10 µM. The same molecule returned a drug sensitivity score in assay [2] of 0.
For the molecule `CC(C)(C)NC(=O)[C@H]1CC[C@H]2[C@@H]3CC[C@H]4NC(=O)C=C[C@]4(C)[C@H]3CC[C@]12C` [Finasteride], the “absolute EC50 for viability” value in assay [1] was more than 10 µM. The drug sensitivity score in assay [2] was found to be 0.
